The values below are quoted from earlier work in publication PMC9297971 (Chembiochem, 2021).

As a reminder, the IC50 is the concentration that inhibits the measured activity by half.

For the data set, the system named is HIV-1. Conditions: read-out: IC50 of clinically used T20; ref 15b, 36.

On to Enfuvirtide [T20], for which the half-maximal inhibitory concentration (IC50) is 24 to 36 nM.
